Ends that are not written are not given here.
Tests used:
[1] = test system: middle cerebral artery occlusion (MCAO) in adult rats; assay: MCAO: neurological deficits (modified Bederson scoring system); assay type: in vivo, rat; settings: Arginine 9-mer-conjugated peptides; intravenous 1 mg/kg; scored 8, 24 and 48 hours after MCAO; relative to control
Procedure: (§1) In order to examine the effects of the peptide therapeutics described herein, a thromboembolic model of middle cerebral artery occlusion that closely mimics human ischemic brain stroke was used: a clotted segment of blood is injected into the origin of the middle cerebral artery to block blood flow in the corresponding vascular territory of the lateral cerebrum (Wang, Yang et al. 2001).
(§2) Following deep isoflurane anesthesia via a nose-cone, fur was shaved from the ventral aspect of the neck. The shaved skin was cleaned twice with alternating applications of Proviodine (iodine detergent solution) and 70% ethanol. Following a final application of Proviodine, the surgical field was draped and a midline incision made in the ventral skin and fascia of the neck. Under an operating microscope, the right common carotid artery (CCA), the right external carotid artery […], and the right internal carotid artery […] were carefully isolated and separated from the adjacent vagus nerve. A 6-0 silk suture was loosely tied at the origin of the ECA, and another suture was used to ligate the ECA distally. A sterile modified PE 10 catheter was introduced into the lumen of the right ECA via a small puncture. Ten microliters of blood was withdrawn into the catheter and retained for 15 minutes to allow formation of a clot. The fresh autologous pre-formed clot was used for MCA occlusion. The right CCA and the right ICA were temporarily clamped using microvascular clips. The PE 50 catheter containing a 20 mm long fibrin rich clot was attached to 100 μl Hamilton syringe and introduced into the lumen of the external carotid artery via a small incision. The suture around the origin of the external carotid artery was tightened around the intraluminal catheter to prevent bleeding, and the microvascular clip on the internal carotid artery was removed. The catheter was gently advanced from the ECA into the lumen of the ICA and upwards to the origin of the middle cerebral artery (a total of 17 mm in distance from the bifurcation of the CCA). At this point, the end of the catheter is 1-2 mm away from the origin of the middle cerebral artery. Over 10 seconds, the clot (3.5 μl volume) was gently injected together with 5 μl of sterile saline within the catheter. The catheter was removed 5 minutes after injection, and the right ECA was ligated at its origin. Body temperature was maintained at 37° C. with a heating pad for the duration of surgery, after which the surgical field was closed with 4-0 silk sutures. Subcutaneous injections of Buprenorphine (0.05 mg/kg) were administered to minimize post-surgical discomfort. […]
Neurological deficits were recorded at 8, 24 and 48 hours after ischemic injury. Neurological deficits were determined using a modified Bederson scoring system. […]

[2] = test system: middle cerebral artery occlusion (MCAO) in adult rats; assay: Thromboembolic middle cerebral artery occlusion (MCAO): brain infarct volume (TTC staining); assay type: in vivo, rat; settings: Arginine 9-mer-conjugated peptides; intravenous (tail-vein) 1 mg/kg; 48 hours after MCAO; relative to control
Procedure: as §1
as §2, with “origin.” for “origin. Body temperature was maintained at 37° C. with a heating pad for the duration of surgery, after which the surgical field was closed with 4-0 silk sutures. Subcutaneous injections of Buprenorphine (0.05 mg/kg) were administered to minimize post-surgical discomfort.”
(§3) 48 hours after MCA occlusion isoflurane anesthetized rats were euthanized by decapitation. […] Infarct volumes were calculated from scanned images of the coronal surfaces of brain slices, using the following formula: Infarct volume=(volume of uninjured hemisphere−(volume of injured hemisphere−measured infarct volume))/volume of uninjured hemisphere)×100. […]

[3] = test system: axotomized retinal ganglion cells (RGCs); assay: Optic nerve transection (axotomy): RGC survival at 14 days; assay type: in vivo, rat
Procedure: Optic nerve transection was performed as previously described (Koeberle and Ball 1998; Koeberle and Bahr 2008; Koeberle, Wang et al. 2010; Magharious, D'Onofrio et al. 2011; Magharious, D'Onofrio et al. 2011; Monnier, D'Onofrio et al. 2011). Animals were placed in a stereotaxic frame and anesthetized with Isoflurane (2%; 0.8 L/min oxygen flow rate) delivered through a gas anesthesia mask. Lidocaine eye drops were used to anesthetize the cornea and ophthalmic eye ointment was applied to the cornea to prevent desiccation during surgery. […] In order to allow access to the optic nerve and surrounding dura mater sheath, the eye was rotated laterally by applying traction to the extraocular muscles. The dural sheath surrounding the optic nerve was cut longitudinally, to avoid damaging blood vessels supplying the retina. The optic nerve was gently lifted from the meningeal sheath and transected within 2 mm of the back of the eye. In order to retrogradely label RGCs, gelfoam soaked in 2% Fluorogold (Sigma) was placed over the transected optic nerve stump. The orbital contents were returned to their original location and the initial incision was closed. The optic nerve crush procedure was performed using a similar approach; however, the optic nerve was crushed using fine self-closing forceps for 6 seconds as previously described (Magharious, D'Onofrio et al. 2011; Monnier, D'Onofrio et al. 2011). The orbital contents were then similarly returned to their original location and the initial incision was closed. Following surgery, rats were placed in a recovery cage under a heat lamp and given Ketoprofen to ease post-surgical recovery.
The procedures for intraocular and optic nerve injections have been previously described (Koeberle and Ball 1998; Koeberle and Bahr 2008; Koeberle, Wang et al. 2010; Magharious, D'Onofrio et al. 2011; Magharious, D'Onofrio et al. 2011; Monnier, D'Onofrio et al. 2011). Animals received intraocular injections of each peptide at 3 and 8 days postaxotomy, prior to the onset of RGC apoptosis which occurs at 4-5 days after axotomy. Animals were placed in a stereotaxic frame and anesthetized with isoflurane, delivered through a gas anesthetic mask. The cornea was anesthetized using Alcaine eye drops (Alcon) prior to intraocular injections. A pulled glass micropipette attached to a 10 μl Hamilton syringe via a hydraulic coupling through PEEK tubing was used to deliver 4 μl of a peptide solution (10 mg/ml) into the vitreous chamber of the eye, posterior to the limbus. Care was taken to prevent damage to the lens or anterior structures of the eye. The pipette was held in place for 5 seconds after injection and slowly withdrawn from the eye to prevent reflux. Injections were performed using a surgical microscope in order to visualize pipette entry into the vitreous chamber and confirm delivery of the injected solution.
To directly target RGCs, peptide solutions were injected into the transected optic nerve stump using a 10 microliter Hamilton syringe. A total of 5 microliters of peptide suspension (10 mg/ml) were injected. The majority of the injected fluid will reflux out of the optic nerve during this procedure, so the remaining pool of peptide suspension is left in place when returning the orbital contents to their original positions.
For intraperitoneal injections, 1 ml of saline containing 0.5 mg of dissolved peptide was delivered via a 25 gauge needle attached to a 5 ml syringe, following rapid anesthesia with isoflurane to incapacitate the animal.
For eye drop application of C-terminal peptides, animals were sedated with isoflurane and placed in a stereotaxic frame, in order to reduce the blink reflex. Twenty-five microliters of a peptide suspension (1 mg/ml) was delivered to the surface of the cornea using a micropipetter with a sterile micropipette tip. Eye drops were delivered once per day, on day 1, 2, 3, 4, 5, 6, and day 7 after axotomy. […]

[4] = test system: middle cerebral artery occlusion (MCAO) in adult rats; assay: MCAO: brain edema of the injured hemisphere; assay type: in vivo, rat; settings: Arginine 9-mer-conjugated peptides; intravenous 1 mg/kg; 48 hours after MCAO; relative to control
Procedure: as §1
Following deep isoflurane anesthesia via a nose-cone, fur was shaved from the ventral aspect of the neck. The shaved skin was cleaned twice with alternating applications of Proviodine (iodine detergent solution) and 70% ethanol. Following a final application of Proviodine, the surgical field was draped and a midline incision made in the ventral skin and fascia of the neck. Under an operating microscope, the right common carotid artery (CCA), the right external carotid artery […], and the right internal carotid artery […] were carefully isolated and separated from the adjacent vagus nerve. […]
as §3

[5] = test system: cultured post-natal cortical neurons; assay: Cortical neuron survival after glutamate (crystal violet assay); assay type: cell-based, rat; settings: 5 mM glutamate, 24 hours; increasing volumes of 10 mg/ml peptide stock; relative to control
Procedure: Cortical neuron cultures were made from newborn (P5) rat pups. Cortical samples were triturated 30× using a P1000 pipettor in cold Dubelcco's PBS+glucose. Neurons were plated in 24 well plates coated with poly-d-lysine. 100,000 cells/well were plated in cold Neurobasal A medium+glutamax+penicillin/streptomycin. Cultures were placed in an incubator (37 Celsius, 5% CO2) for 7 days, with half the media changed after 3 days.
After 7 days in culture, the media was replaced with fresh media containing 5 mM glutamate. Experimental samples received various amounts of each peptide, whereas controls received an equivalent volume of PBS (vehicle). After 24 hours, cell survival was quantified using the crystal violet assay: Media was removed from the cells and 200 microliters of 0.2% crystal violet (dissolved in 20% methanol:80% H2O) was added to each well. After 5 minutes, wells were rinsed with distilled water and the plates were dried. Crystal violet was eluted from the cells using 0.1 M sodium citrate in 50% ethanol. 100 microliter samples from each well were then transferred to 96 well plates and absorbance was read at 540 nm. Results were expressed as the relative fold-change in comparison to the control samples that received buffer.

[6] = test system: retinal ganglion cells (RGCs); assay: Retinal ischemia (ophthalmic artery ligation): RGC survival at 14 days; assay type: in vivo, rat; settings: ophthalmic vessels ligated 45 minutes; intravenous 500 μg at 1 day and 8 days after injury; 14 days after stroke
Procedure: The approach for temporary retinal ischemia (ophthalmic artery ligation) was similar with a few exceptions. this procedure has been previously described (Tatton, Chalmers-Redman et al. 2001). Since the optic nerve was not damaged in this procedure, RGCs had to be retrogradely labeled prior to ischemia. […] Injections were performed under gas anesthetic in a stereotaxic apparatus. […] Injections were carried out using a 10 μl Hamilton syringe actuated by a computer controlled Picopump (World Precision Instruments). […] The needle was left in place for 10 min after each injection and slowly withdrawn to prevent reflux of the injected solutions up the needle tract. The surgical approach to the optic nerve was identical to that described for optic nerve transection. After a longitudinal cut was made in the meningeal sheath surrounding the optic nerve, the nerve was gently lifted out of the sheath. The meningeal sheath including the ophthalmic artery was then clamped using a calibrated micro-vessel clamp for 45 minutes, after which the clamp was removed to permit vascular reperfusion. […]
Eyes were enucleated, the cornea and lens were removed and the remaining eye cups containing the retinas were fixed in 4% paraformaldehyde at 14 days postaxotomy. […] RGC densities were grouped by retinal eccentricity (inner, middle, outer), and expressed as mean±SEM. […]

[7] = Arginine 9-mer (R9)-conjugated peptides, eye drops (1 mg/ml, 25 microliters) once per day, days 1-7 after axotomy, 14 days after axotomy
[8] = 14 days postaxotomy, TAT-conjugated peptide, intraocular injection 10 mg/ml at 3 and 8 days

Substance	neurological deficits (Bederson score) [1]	brain infarct volume [2]	RGC survival relative to control [3, 7]	brain edema (swelling) [4]	cortical neuron survival [5]	increase in RGC survival compared to controls [3, 8] [fold]	RGC density as share of the normal density of 2500 cells/mm^2 ([3]; 14 days postaxotomy, TAT-conjugated peptide, nerve injection 10 mg/ml) [%]	increase in RGC survival compared to controls ([3]; 14 days postaxotomy, TAT-conjugated peptide, single nerve injection 10 mg/ml at time of axotomy) [fold]	RGC survival after ischemic (stroke) injury [6]	RGC survival relative to control ([3]; 14 days postaxotomy, TAT-conjugated peptide, intraperitoneal (IP) injections, 500 μg per injection)	RGC survival relative to control ([3]; 14 days postaxotomy, TAT-conjugated peptide, nerve injection)
Kv2.1: R9-conjugated Kv2.1 C-terminal peptide HGSTRDQSI (SEQ ID NO:2) (also: R9 conjugated, site not given here; listed as Homo sapiens)	significantly reduced neurological deficits	significantly reduced	significantly enhanced RGC survival	significantly reduced brain edema							
PTEN: R9 (RRRRRRRRR)-conjugated rat PTEN phosphatase C-terminal peptide DQHSQITKV (SEQ ID NO:1) (RRRRRRRRRDQHSQITKV)	significantly reduced neurological deficits	significantly reduced	significantly enhanced RGC survival								
TAT-Kv2.1: TAT domain conjugated to Kv2.1 voltage-gated potassium channel C-terminal peptide HGSTRDQSI (SEQ ID NO:2) (also: TAT conjugated, site not given here; listed as Homo sapiens)					dose-dependent survival-promoting effect	3	~80	5	significantly enhanced RGC survival		
hPTEN: R9-conjugated human PTEN phosphatase C-terminal peptide DQHTQITKV (SEQ ID NO:9)	significantly reduced neurological deficits	significantly reduced	significantly enhanced RGC survival								
iNOS: R9-conjugated iNOS C-terminal peptide LEEPKGTRL (SEQ ID NO:8), MCAO tests (also: R9 conjugated, site not given here; listed as Homo sapiens)	significantly reduced neurological deficits	significantly reduced		significantly reduced brain edema		2				little or no effect	little or no effect

Reference: patent US10059742B2, “Peptides and methods and uses thereof for preventing retinal disorders” (priority 2012, dated 2018)
